Assay results as given in patent EP3298025B1, “NEW AMINO ACID SEQUENCES WITH MI[…] DERIVED FROM NAJA ATRA CARDIOTOXIN 1 (CTX-1)” (Università degli Studi di Parma, priority 2015, dated 2016).
“And” between values parts separate entries of the source, which are not always exact repeats. Identical values can stand only once. Residues, ends and D or L forms follow the SMILES beside them.

Tests used:
Type in all cases: cell-based
[1] = system: Gram-negative tested bacteria; experiment: micro-dilution and transplant on agar, summary over Gram-negative panel; details: almost all Gram-negative tested bacteria
Experimental: For each bacterial strain 3-5 morphologically similar colonies from fresh cultures were taken and inoculated in Brain Heart Infusion broth, then incubated at 37°C in agitation at 225 r.p.m. for about 3-4 hours. Then the bacterial suspension was centrifuged at 1000 G for 20 minutes and the pellet resuspended in phosphate buffer pH 7, 10 mM. The turbidity of the bacterial suspension was measured using a spectrophotometer with absorbance of 600 nm; the range 0.08-0.13 equates to about 10^8 cfu/ml. The bacterial suspension was diluted 1:100 in phosphate buffer 10mM to obtain a bacterial concentration of about 10^6 cfu/ml. Within 30 minutes 50 µl of the suspension (10^6 cfu/ml) were inoculated in each well of the microtiter plate, to obtain a bacterial concentration of about 5x10^5 cfu/ml.
The peptides ability to inhibit the bacterial growth in liquid cultures was tested. 50 µl of each peptides solutions of about 0,2-50 µM were added in microtiter plates with 96 wells with U-shaped bottom, containing the liquid culture medium and one of these bacterial strains: E coli ATCC 25922, Pseudomonas. […]
The bacterial suspension and peptides were put in contact for 2 hours at 37°C, with differing concentrations of the peptide. […] After an incubation time of 24 hours at 37°C, the bacterial colonies (cfu) were counted.

[2] = system: epithelial MDBK cells (Madin Darby Bovine Kidney); experiment: cytotoxicity against eukaryotic cells, Trypan Blue; details: overnight incubation
Experimental: Peptides cytotoxicity against epithelial MDBK cells (Madin Darby Bovine Kidney) was determined using cell cultures of about 5x10^5 cells/ml with and without peptides, with overnight incubation at 37°C with CO2. The negative control was in medium without peptide; positive control was in medium with 0.2% of Triton x100, to completely lyse cells. Cells vitality was assessed adding every well with 20 µl of Trypan Blue, incubating other 5 minutes at 37°C. MCC10 was the minimal peptide concentration with 10% of cytotoxicity.

[3] = system: Staphylococcus aureus ATCC 25923; experiment: antimicrobial activity in presence of Muller-Hinton 20%; details: 20% of Muller-Hinton medium
Experimental: (§1) This example verifies the peptides antimicrobial activity in presence of a concentration of 20% of Muller-Hinton liquid medium, characterized by the presence of salts with high concentration.
(§2) Peptides were tested in the ability to inhibit bacterial growth in liquid medium. 50 µl of peptides at a concentration between 3.1 µg/ml (NCP-0=1.4µM; NCP-2=[…]; NCP-3=1.3 µM) and 100 µg/ml (NCP-0=46.3 µM; NCP-2=43.2 µM; NCP-3=41.6 µM) were added in microtiter plate wells with phosphate buffer 10 mM with Muller-Hinton liquid medium al the final concentration of 20% and one of these bacteria: E. coli ATCC 25922, Pseudomonas aeruginosa ATCC 27853, Staphylococcus aureus ATCC 25923 and Staphylococcus aureus methicillin resistant ATCC 43300. After 2 hours incubation at 37°C, bacteria were transplanted on solid culture medium. Bacterial cultures were cultivated without peptides as growth control.

[4] = system: Pseudomonas aeruginosa ATCC 27853; experiment: as above; details: 20% of Muller-Hinton medium
Experimental: as §1, §2

E. coli ATCC 25922 = experiment: as above; details: 20% of Muller-Hinton medium
Experimental: as §1, §2

[5] = system: Malassetia pachydermatis ATCC 14522; experiment: micro-dilution in liquid medium and transplant on solid medium, yeasts; details: 2 hours at 37°C, transplant on agar Sabouraud
Experimental: (§3) Candida albicans ATCC 10231, Candida glabrata ATCC 2001 and Malassetia pachydermatis ATCC 14522 were cultivated in Czapek-Dox broth (DIFCO) medium for 48-72 hours. On the day of the test the fungal culture was centrifuged at 1700G for 15 minutes and the pellet resuspended in phosphate buffer, then put in agitation on an electric vortex to disrupt fungal cell aggregations. The suspension was diluted to get a final optical density of 0,5 of the McFarland scale (about 1-5x10^6 cell/ml) (Branda J.A., Krantz A. Effect of yeast on automated cell counting. Am J Clin Pathol., 2006:126, 248-254.).
(§4) Peptides ability to inhibit the fungal growth in liquid cultures was tested. 50 µl of each peptides solutions of about 0.2-50 µM were added in microtiter plates with 96 wells with U-shaped bottom, with liquid culture medium and one of these fungi: Candida albicans ATCC 10231, Candida glabrata ATCC 2001 and Malassetia pachydermatis ATCC 14522. After 2 hours of incubation at 37°C, fungal suspensions were plated on solid culture medium, agar Sabouraud. Fungal cultures were cultivated without peptides as growth control.
(§5) the fungal suspension and peptides at differing concentrations were in contact for about 2 hours at 37°C. After this incubation, 20 µl from every well of the plate were transplanted on solid culture medium, agar Sabouraud. The inoculum was evenly distributed on the agar with the aid of a sterile disposable handle. After an incubation time of 24 hours at 37°C, the fungal colonies (cfu) were counted.

[6] = system: Candida glabrata ATCC 2001; experiment: as above; details: 2 hours at 37°C, transplant on agar Sabouraud
Experimental: as §3, §4, §5

[7] = system: Candida albicans ATCC 10231; experiment: as above; details: 2 hours at 37°C, transplant on agar Sabouraud
Experimental: as §3, §4, §5

## CC[C@H](C)[C@H](NC(=O)[C@H](CCCCN)NC(=O)[C@H](Cc1ccc(O)cc1)NC(=O)[C@H](CS)NC(=O)[C@H](CC(C)C)NC(=O)[C@H](CC(N)=O)NC(=O)[C@H](CCCCN)NC(=O)CNC(=O)[C@H](C)NC(=O)[C@@H]1CCCN1C(=O)[C@H](CS)NC(=O)[C@@H](NC(=O)[C@H](CCCCN)NC(=O)[C@H](CO)NC(=O)[C@H](C)NC(=O)[C@@H](NC(=O)[C@@H]1CCCN1C(=O)[C@@H](NC(=O)[C@H](CC(C)C)NC(=O)[C@@H](N)CCCCN)[C@@H](C)CC)[C@@H](C)CC)[C@@H](C)O)C(=O)O [NCP-0, K LIPIA SKT CPA GKN LCY KI] (H-KLIPIASKTCPAGKNLCYKI-OH; N-terminus and C-terminus assumed)
[1]
  antimicrobial activity: scarcely active
[2]; peptide 12.5 µg/ml
  Cytotoxicity: cell number percentage reduction in comparison with control: 4%
[2]; peptide 100 µg/ml
  Cytotoxicity: cell number percentage reduction in comparison with control: 6%
[3]; peptide 3.1 µg/ml
  Antimicrobial activity (% to control): 0%
[3]; peptide 6.3 µg/ml
  Antimicrobial activity (% to control): 0%
[3]; peptide 12.5 µg/ml
  Antimicrobial activity (% to control): 0%
[3]; peptide 100 µg/ml
  Antimicrobial activity (% to control): 0%
[4]; peptide 3.1 µg/ml
  Antimicrobial activity (% to control): 0%
[4]; peptide 6.3 µg/ml
  Antimicrobial activity (% to control): 0%
[4]; peptide 12.5 µg/ml
  Antimicrobial activity (% to control): 0%
[4]; peptide 100 µg/ml
  Antimicrobial activity (% to control): 0%
E. coli ATCC 25922; peptide 3.1 µg/ml
  Antimicrobial activity (% to control): 0%
E. coli ATCC 25922; peptide 6.3 µg/ml
  Antimicrobial activity (% to control): 0%
E. coli ATCC 25922; peptide 12.5 µg/ml
  Antimicrobial activity (% to control): 0%
E. coli ATCC 25922; peptide 100 µg/ml
  Antimicrobial activity (% to control): 0%
[5]
  LD90: 150.82 µg/ml and 69.8 µM
  LD99: 151.87 µg/ml and 70.3 µM
[6]
  LD90: > 100 µg/ml and > 46.3 µM
  LD99: > 200 µg/ml and > 92.6 µM
[7]
  LD90: > 100 µg/ml and > 46.3 µM
  LD99: > 200 µg/ml and > 92.6 µM
